Test results reported in US20110190123A1, “SLOW-RELEASE FORMULATIONS CONTAINING QUILLAY EXTRACTS, FOR CONTROLLING WHEAT TAKE-ALL DISEASE” (priority 2008, published 2011).

Tests used:
Ggt = test: Plant pot experiments, control of take-all in wheat (Take-All Index); assay type: in vivo, Gaeumannomyces graminis
Procedure: Agronomic evaluation of control effectiveness of the formulations developed on the Ggt fungus was conducted through the establishment of 26 experiments in plant pots. These experiments allowed to evaluate new formulations, or correct defective aspects of the formulations developed. Evaluation methodology was made under greenhouse and awning conditions, considering: soil use of Yerbas Buenas ([…] Region VII), which was sterilized by autoclave and inoculated with Ggt grown in oat grains during 40 days. Soil was placed in PVC plant pots arranged on a wooden plate, where it was seeded with a wheat seed of cv. Dalcahue-INIA.
In these experiences two sample treatments were used (with and without inoculum) and one commercial sample Silthiofam (Latitude®, Monsanto) in dosis of 2 L/ton of seed to compare the effectiveness of different slow release formulations or “Slow release” based on quillay extract.

Gaeumannomyces graminis = test: Field tests in Region IX of Chile, root rot in wheat plants; assay type: in vivo; conditions: four field experiments, highly rainy season
Excerpt: This invention refers to natural fungicides used in seed treatment or soil treatment, that are obtained from quillay extract formulation, rich in saponin concentrations, to which synthetic polymers have been adhered (latex and resins) allowing its slow release in the soil, and which efficiency and control have been tested at a plant pot and field experiment level on fungus Gaeumannomyces graminis, which is the cause of take-all of wheat.

[1] = FIG. 6 experiment, Oct. 3, 2005
[2] = average of plant pot experiments

SMILES: C=CCNC(=O)c1c([Si](C)(C)C)sc(C)c1C [Silthiofam]
- control with respect to the inoculated sample (Ggt; FIG. 2 experiment, seed treatment, Silthiofam 2 L/ton of seed): 44%
- control with respect to the inoculated sample (Ggt; FIG. 3 experiment, seed treatments, QL 1000 4 L per ha): 50.8%
- Take-All Index (TAI) (Ggt; [1]): 28
- control with respect to the non-treated sample (Ggt; [1]): 71%
- Take-All Index (TAI), average among all experiences (Ggt; [2]): 24.6
- average control level with respect to the inoculated sample (Ggt; [2]): 67.5%
- effectiveness in field experiments (Gaeumannomyces graminis): did not show effectiveness
